Measurements as given in patent US20210188813A1, “EZH2 INHIBITOR AND PHARMACEUTICALLY ACCEPTABLE SALTS AND POLYMORPHIC SUBSTANCES THEREOF, AND APPLICATION OF EZH2 INHIBITOR” (SHANGHAI HAIYAN PHARMACEUTICAL TECHNOLOGY CO., LTD., priority 2018, published 2021).

Key:
[1] = Solid state stability experiment; assay type: physicochemical
Source text: Detected changes in crystal form and purity at 4 and 7 days.

[2] = Dynamic solubility experiment; assay type: physicochemical; details: for Solubility: room temperature, 24 h
Source text: The free base samples and the two crystal forms were plotted separately in the experiment.

CCc1c(C(=O)NCc2c(C)cc(C)[nH]c2=O)cc2c(cnn2C)c1N(CC)[C@H]1CC[C@H](N2CC(OC)C2)CC1.Cl [Crystal form A]
Content (%) ([1]; 4° C. 0 d): 96.62% | Properties ([1]; 4° C. 0 d): Dark yellow | RRT(%) 0.86 ([1]; 4° C. 0 d): 0.21% | RRT(%) 0.89 ([1]; 4° C. 0 d): 0.11% | RRT(%) 0.94 ([1]; 4° C. 0 d): 0.31% | RRT(%) 0.97 ([1]; 4° C. 0 d): 0.09% | RRT(%) 1.04 ([1]; 4° C. 0 d): 0.42% | RRT(%) 1.07 ([1]; 4° C. 0 d): 0.67% | RRT(%) 1.10 ([1]; 4° C. 0 d): 0.42% | RRT(%) 1.13 ([1]; 4° C. 0 d): 0.18% | RRT(%) 1.15 ([1]; 4° C. 0 d): 0.38% | RRT(%) 1.16 ([1]; 4° C. 0 d): 0.60% | Total impurities (%) ([1]; 4° C. 0 d): 3.38% | Content (%) ([1]; 40° C./75% RH 4 d): 96.34% | Properties ([1]; 40° C./75% RH 4 d): Dark yellow | RRT(%) 0.86 ([1]; 40° C./75% RH 4 d): 0.21% | RRT(%) 0.89 ([1]; 40° C./75% RH 4 d): 0.09% | RRT(%) 0.94 ([1]; 40° C./75% RH 4 d): 0.28% | RRT(%) 0.97 ([1]; 40° C./75% RH 4 d): 0.09% | RRT(%) 1.04 ([1]; 40° C./75% RH 4 d): 0.49% | RRT(%) 1.07 ([1]; 40° C./75% RH 4 d): 0.75% | RRT(%) 1.10 ([1]; 40° C./75% RH 4 d): 0.51% | RRT(%) 1.13 ([1]; 40° C./75% RH 4 d): 0.19% | RRT(%) 1.15 ([1]; 40° C./75% RH 4 d): 0.41% | RRT(%) 1.16 ([1]; 40° C./75% RH 4 d): 0.60% | RRT(%) 1.20 ([1]; 40° C./75% RH 4 d): 0.07% | Total impurities (%) ([1]; 40° C./75% RH 4 d): 3.66% | Content (%) ([1]; 40° C./75% RH 7 d): 96.60% | Properties ([1]; 40° C./75% RH 7 d): Dark yellow | RRT(%) 0.86 ([1]; 40° C./75% RH 7 d): 0.22% | RRT(%) 0.89 ([1]; 40° C./75% RH 7 d): 0.09% | RRT(%) 0.94 ([1]; 40° C./75% RH 7 d): 0.31% | RRT(%) 0.97 ([1]; 40° C./75% RH 7 d): 0.09% | RRT(%) 1.04 ([1]; 40° C./75% RH 7 d): 0.47% | RRT(%) 1.07 ([1]; 40° C./75% RH 7 d): 0.75% | RRT(%) 1.10 ([1]; 40° C./75% RH 7 d): 0.32% | RRT(%) 1.13 ([1]; 40° C./75% RH 7 d): 0.11% | RRT(%) 1.15 ([1]; 40° C./75% RH 7 d): 0.38% | RRT(%) 1.16 ([1]; 40° C./75% RH 7 d): 0.59% | Total impurities (%) ([1]; 40° C./75% RH 7 d): 3.40% | solid state stability ([1]; 40° C./75% RH, 4 and 7 days): stable | Content (%) ([1]; 60° C. 4 d): 85.19% | Properties ([1]; 60° C. 4 d): Dark yellow | RRT(%) 0.86 ([1]; 60° C. 4 d): 0.15% | RRT(%) 0.89 ([1]; 60° C. 4 d): 0.14% | RRT(%) 0.94 ([1]; 60° C. 4 d): 0.67% | RRT(%) 0.97 ([1]; 60° C. 4 d): 0.56% | RRT(%) 1.04 ([1]; 60° C. 4 d): 1.25% | RRT(%) 1.07 ([1]; 60° C. 4 d): 10.65% | RRT(%) 1.10 ([1]; 60° C. 4 d): 0.29% | RRT(%) 1.13 ([1]; 60° C. 4 d): 0.08% | RRT(%) 1.15 ([1]; 60° C. 4 d): 0.44% | RRT(%) 1.16 ([1]; 60° C. 4 d): 0.52% | RRT(%) 1.20 ([1]; 60° C. 4 d): 0.05% | Total impurities (%) ([1]; 60° C. 4 d): 14.81% | Content (%) ([1]; 60° C. 7 d): 75.90% | Properties ([1]; 60° C. 7 d): Dark yellow | RRT(%) 0.86 ([1]; 60° C. 7 d): 0.11% | RRT(%) 0.89 ([1]; 60° C. 7 d): 0.07% | RRT(%) 0.92 ([1]; 60° C. 7 d): 0.22% | RRT(%) 0.94 ([1]; 60° C. 7 d): 0.63% | RRT(%) 0.97 ([1]; 60° C. 7 d): 0.66% | RRT(%) 1.04 ([1]; 60° C. 7 d): 1.28% | RRT(%) 1.07 ([1]; 60° C. 7 d): 19.89% | RRT(%) 1.10 ([1]; 60° C. 7 d): 0.21% | RRT(%) 1.13 ([1]; 60° C. 7 d): 0.05% | RRT(%) 1.15 ([1]; 60° C. 7 d): 0.38% | RRT(%) 1.16 ([1]; 60° C. 7 d): 0.51% | RRT(%) 1.20 ([1]; 60° C. 7 d): 0.09% | Total impurities (%) ([1]; 60° C. 7 d): 24.10% | change in crystal form on storage ([1]; 60° C. and 40° C./75% RH, 4 and 7 days): the crystal form has not changed | change of impurities ([1]; 60° C., 4 and 7 days): the impurities increase obviously | Phenomenon ([2]; 0.1M HCl): clear | Solubility ([2]; 0.1M HCl): ≥62.8 mg/mL | Phenomenon ([2]; H2O): clear | Solubility ([2]; H2O): ≥81.4 mg/mL | Phenomenon ([2]; pH 4.5 buffer): clear | Solubility ([2]; pH 4.5 buffer): ≥43.8 mg/mL | Phenomenon ([2]; pH 6.8 buffer): clear | Solubility ([2]; pH 6.8 buffer): ≥74.6 mg/mL
